# “Also recorded” adds a separate entry of the source. Read-outs that look alike come from different tables or passages of the source.
# Key:
# GmolGOBP1 = GmolGOBP1 (Grapholita molesta, UniProt H9XTU5); assay: Fluorescence competitive binding assay with probe 1-NPN, rGmolGOBP1
# Description: (§1) Fluorescence binding assays were performed on a Hitachi (Tokyo, Japan) F-4500 fluorescence spectrophotometer with a 1 cm light path fluorimeter quartz cuvette. Both of the slit widths for excitation and emission were 10 nm. 1-N-phenyl-naphthylamine (1-NPN) was dissolved in HPLC purity grade methanol to yield a 1 mM stock solution. […] The probes were excited at 337 nm and emission spectra were recorded between 370 and 550 nm. […] Binding data were collected in three independent measurements.
# (§2) Dissociation constants of the complex GmolGOBPs/1-NPN (K1-NPN) were calculated by a nonlinear regression binding curve, using Prism 5.0 (GraphPad Software Inc.).
# rGmolGOBP1 = biological target: T1, rGmolGOBP1 (Grapholita molesta, UniProt H9XTU5); assay: 1-NPN fluorescence binding titration of rGmolGOBP1; settings: 2 μM protein, 20 mM Tris-HCl pH 7.4; read-out: dissociation constant of 1-NPN
# T1 sequence (H9XTU5 21-164): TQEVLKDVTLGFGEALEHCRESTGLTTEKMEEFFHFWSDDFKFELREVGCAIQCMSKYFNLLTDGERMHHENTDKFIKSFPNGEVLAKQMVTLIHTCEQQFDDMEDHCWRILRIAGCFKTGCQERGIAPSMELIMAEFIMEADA
# Description: (§3) Fluorescence binding assays were performed on a Hitachi (Tokyo, Japan) F-4500 fluorescence spectrophotometer with a 1 cm light path fluorimeter quartz cuvette. Both of the slit widths for excitation and emission were 10 nm. 1-N-phenyl-naphthylamine (1-NPN) was dissolved in HPLC purity grade methanol to yield a 1 mM stock solution. A 2 μM solution of the protein in 20 mM Tris-HCl, pH 7.4, was titrated with aliquots of 1 mM 1-NPN to final concentrations of 1, 2, 4, 6, 8, 10, 12, 14, 16, 18, and 22 μM. The probes were excited at 337 nm and emission spectra were recorded between 370 and 550 nm. All ligands (S1 File) used in competitive binding assays were also dissolved in HPLC purity grade methanol. The final concentrations of sex pheromones were between 1 and 22 μM for each rGmolGOBP protein, whereas the concentrations of 30 synthetic plant volatiles to rGmolGOBP1 and 2 were up to 64 and 100 μM, respectively. Binding data were collected in three independent measurements.
# (§4) Dissociation constants of the complex GmolGOBPs/1-NPN (K1-NPN) were calculated by a nonlinear regression binding curve, using Prism 5.0 (GraphPad Software Inc.). […]
# rGmolGOBP2 [1] = biological target: T2, rGmolGOBP2 (Grapholita molesta, UniProt H9XTU6); assay: 1-NPN fluorescence binding titration of rGmolGOBP2; settings: 2 μM protein, 20 mM Tris-HCl pH 7.4; read-out: dissociation constant of 1-NPN
# Description: as §3, §4
# GmolGOBP2 T9A = GmolGOBP2 T9A (Grapholita molesta, UniProt H9XTU6, T29A); assay: Fluorescence competitive binding assay, GmolGOBP2 mutant T9A
# Description: as §3
# (§5) Dissociation constants of the complex GmolGOBPs/1-NPN (K1-NPN) were calculated by a nonlinear regression binding curve, using Prism 5.0 (GraphPad Software Inc.). The inhibition constants (Ki) of the competitors were computed from the corresponding IC50 values using the equation: Ki = [IC50]/(1+[1−NPN]/K1−NPN), where [1−NPN] is the free concentration of 1−NPN and K1-NPN is the dissociation constant of the complex protein/1-NPN.
# (§6) Gene-specific primers were designed in accordance with the recommended protocols of the TaKaRa MutanBEST Kit (TaKaRa, Shiga, Japan). The GmolGOBP2 coding sequence was mutated to create the three mutants GmolGOBP2 T9A (threonine to alanine at position 9), GmolGOBP2 V111A (valine to alanine at position 111), and GmolGOBP2 V114A (valine to alanine at position 114). Mutations were obtained using the TaKaRa MutanBEST Kit with Pyrobest DNA polymerase with the pMD19-T/GmolGOBP2 plasmid DNA as template. All plasmids containing mutations were verified by DNA sequencing. Mutated protein expression and enrichment were performed as described above for rGmolGOBP1 and 2. After determining concentrations, purified mutants were applied to verify the binding affinities with dodecanol and its analogs in fluorescence ligand-binding assays.
# rGmolGOBP2 [2] = biological target: T2, rGmolGOBP2; assay: Effect of pH on binding affinity of rGmolGOBP2
# Description: Based on the fluorescence measurement experiments as described above, we further evaluated the effects of pH on the binding affinities of GmolGOBP2 to ligands; the binding of GmolGOBP2 to the representative ligand dodecanol was detected at six different pH values (4.0, 5.0, 6.8, 7.4, 8.0 and 8.8) in 20 mM Tris-HCl buffer. All the values of binding affinities were collected in three independent measurements. Data are reported as means±SEM. Difference in pH effect on binding affinity of rGmolGOBP2 was analyzed with one-way analysis of variance (ANOVA), followed by the Student-Newman-Keuls (S-N-K) test at α = 0.05. P<0.05 was considered statistically significant. For statistical analysis we used SPSS 16.0 software (SPSS Inc., Chicago, IL).
# GmolGOBP2 V111A = GmolGOBP2 V111A (Grapholita molesta, UniProt H9XTU6, V131A); assay: Fluorescence competitive binding assay, GmolGOBP2 mutant V111A
# Description: as §3, §5, §6
# GmolGOBP2 = GmolGOBP2 (Grapholita molesta, UniProt H9XTU6); assay: Fluorescence competitive binding assay with probe 1-NPN, rGmolGOBP2 wild-type
# Description: as §1, §2
# GmolGOBP2 V114A = GmolGOBP2 V114A (Grapholita molesta, UniProt H9XTU6, V134A); assay: Fluorescence competitive binding assay, GmolGOBP2 mutant V114A
# Description: as §3, §5, §6
# rGmolOBP15 = biological target: rGmolOBP15; set-up: method as in PMID 26609640; settings: cited from earlier work
# rGmolPBP1 = biological target: rGmolPBP1; set-up: method as in earlier work; settings: cited from earlier work
# [3] = protein and 1-NPN 2 μM, pH 7.4, calculated from IC50, read-out: GmolGOBP1 Ki
# [4] = protein and 1-NPN 2 μM, pH 7.4, displacing half of initial fluorescence, read-out: GmolGOBP1 IC50
# [5] = protein and 1-NPN 2 μM, pH 7.4, calculated from IC50, read-out: GmolGOBP2 Ki
# [6] = protein and 1-NPN 2 μM, pH 7.4, displacing half of initial fluorescence, read-out: GmolGOBP2 IC50
# T2 sequence (H9XTU6 entry or part of it): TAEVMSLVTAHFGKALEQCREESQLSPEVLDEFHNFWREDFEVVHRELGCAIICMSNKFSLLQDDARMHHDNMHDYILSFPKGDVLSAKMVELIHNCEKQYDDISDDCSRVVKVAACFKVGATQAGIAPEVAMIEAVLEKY
# GmolGOBP2, sequence (H9XTU6 entry or part of it): as above
# GmolGOBP2 T9A, sequence (H9XTU6 entry or part of it T29A): as the sequence (H9XTU6 entry or part of it) above, with T9A counted along it
# GmolGOBP2 V114A, sequence (H9XTU6 entry or part of it V134A): as the sequence (H9XTU6 entry or part of it) above, with V114A counted along it
# GmolGOBP2 V111A, sequence (H9XTU6 entry or part of it V131A): as the sequence (H9XTU6 entry or part of it) above, with V111A counted along it
structure (smiles),measurement,setting,value
CCCCCCO [1-Hexanol],Ki,GmolGOBP1; [3],19.7 µM
same,IC50,GmolGOBP1; [4],21.4 ± 1.8 µM
"c1ccc(Nc2cccc3ccccc23)cc1 [1-NPN, 1-N-phenyl-naphthylamine]",Kd,rGmolGOBP1,11.4 µM
same,Kd,rGmolGOBP2 [1],4.73 µM
CCCCC(CC)CO (stereo not drawn) [2-Ethyl-1-hexanol],Ki,GmolGOBP1; [3],24.8 µM
same,IC50,GmolGOBP1; [4],27 ± 1.81 µM
CC(C)CCO [3-Methyl-1-butanol],Ki,GmolGOBP1; [3],10.7 µM
same,IC50,GmolGOBP1; [4],11.6 ± 0.81 µM
"CCCCCCCCCCCCO [12:OH, dodecanol]",Ki,GmolGOBP2 T9A,6.04 ± 0.17 µM
same,decrease in affinity of T9A mutant,GmolGOBP2 T9A; T9A versus wild-type rGmolGOBP2,3-5 fold
same,binding affinity of rGmolGOBP2 at pH 4.0 (in words),"rGmolGOBP2 [2]; pH 4.0, 20 mM Tris-HCl",weak ability
same,binding affinity of rGmolGOBP2 at pH 7.4 (in words),"rGmolGOBP2 [2]; pH 7.4, 20 mM Tris-HCl, six pH values 4.0 to 8.8 compared",maximum value; also recorded: pronounced binding affinity
same,Ki,GmolGOBP2 V111A,1.35 ± 0.22 µM
same,affinity of V111A mutant versus wild-type (in words),GmolGOBP2 V111A; V111A versus wild-type rGmolGOBP2,slightly lower affinities
same,Ki,GmolGOBP2; [5],1.22 µM
same,IC50,GmolGOBP2; [6],1.78 ± 0.23 µM
same,binding to rGmolGOBP1 (in words),GmolGOBP1; competitive binding with 1-NPN,did not bind
same,Ki,GmolGOBP2 V114A,1.78 ± 0.13 µM
same,affinity of V114A mutant versus wild-type (in words),GmolGOBP2 V114A; V114A versus wild-type rGmolGOBP2,slightly lower affinities
same,Ki,rGmolOBP15,3.24 µM
CCC/C=C/C=O [(E)-2-Hexenal],IC50,GmolGOBP1,23 ± 1.85 µM
same,Ki,GmolGOBP1,21.2 µM
O=Cc1ccccc1 [Benzaldehyde],IC50,GmolGOBP2,91.3 ± 2.87 µM
same,Ki,GmolGOBP2,75.4 µM
same,IC50,GmolGOBP1,35 ± 3.28 µM
same,Ki,GmolGOBP1,32.2 µM
N#Cc1ccccc1 [Benzonitrile],IC50,GmolGOBP1,40.4 ± 1.95 µM
same,Ki,GmolGOBP1,37.1 µM
CCCCOC(C)=O [Butyl acetate],IC50,GmolGOBP1,39.9 ± 2.66 µM
same,Ki,GmolGOBP1,36.7 µM
CCCCOC(=O)CCC [Butyl butyrate],Ki,GmolGOBP1; [3],33.1 µM
same,IC50,GmolGOBP1; [4],36 ± 2.5 µM
CCCCCC(=O)OCCCC [Butyl hexanoate],Ki,GmolGOBP2; [5],43.1 µM
same,IC50,GmolGOBP2; [6],52.2 ± 2.49 µM
same,Ki,GmolGOBP1; [3],17.7 µM
same,IC50,GmolGOBP1; [4],19.2 ± 1.27 µM
CC/C=C\CCO [Cis-3-Hexen-1-ol],IC50,GmolGOBP1,18.3 ± 1.55 µM
same,Ki,GmolGOBP1,16.8 µM
CC/C=C\CCOC(C)=O [Cis-3-Hexenyl acetate],Ki,GmolGOBP1; [3],22.4 µM
same,IC50,GmolGOBP1; [4],24.3 ± 1.71 µM
CCCCCCCCCC=O [Decanal],Ki,GmolGOBP2; [5],42.4 µM
same,IC50,GmolGOBP2; [6],51.3 ± 3.18 µM
same,Ki,GmolGOBP1; [3],16 µM
same,IC50,GmolGOBP1; [4],17.4 ± 1.3 µM
CCCCCCCCCC [Decane],Ki,GmolGOBP1; [3],5.19 µM
same,IC50,GmolGOBP1; [4],5.64 ± 0.69 µM
"CCC/C=C/CCCCCCCOC(C)=O [E8-12:AC, (E)-8-dodecenyl acetate]",Ki,GmolGOBP1; [3],8.85 µM
same,IC50,GmolGOBP1; [4],10.5 ± 0.87 µM
same,Ki,rGmolPBP1,1.09 µM
CCCC(=O)OCC [Ethyl butyrate],Ki,GmolGOBP1; [3],33.2 µM
same,IC50,GmolGOBP1; [4],36.1 ± 2.88 µM
CCCCCCC(=O)OCC [Ethyl heptanoate],Ki,GmolGOBP2; [5],73.2 µM
same,IC50,GmolGOBP2; [6],88.7 ± 3.01 µM
same,Ki,GmolGOBP1; [3],34.4 µM
same,IC50,GmolGOBP1; [4],37.4 ± 2.35 µM
CCCCCC(=O)OCC [Ethyl hexanoate],Ki,GmolGOBP1; [3],35 µM
same,IC50,GmolGOBP1; [4],38.1 ± 3.36 µM

# Source: publication PMC4859520, “Binding Properties of General Odorant Binding Proteins from the Oriental Fruit Moth, Grapholita molesta (Busck) (Lepidoptera: Tortricidae)” (PLoS ONE, 2016)
